How the values were obtained:
bacteria = conditions: residual chlorine concentrations of 1.6 ppm as Cl2; U.S. Pat. No. 3,328,294; cited from earlier work
[1] = test system: P. Aeruginosa and E. Aerogenes; assay: Example 5: pulp slurry bactericidal efficacy of NaOCl with N-hydrogen compounds (1:1); format: cell-based; conditions: for efficacy enhancement over sodium hypochlorite alone / Final Bacteria: NaOCl to N-hydrogen compound 1:1 molar; for efficacy enhancement over sodium hypochlorite alone / log reduction of bacteria: Example 5; for log reduction of bacteria: 5 ppm halogen
Description: (§1) The addition of 5,5-dimethylhydantoin (DMH) to sodium hypochlorite solutions enhances the biocidal activity of sodium hypochlorite. The conditions of this experiment were a modification of ASTM E 600-91. Two biocide solutions were evaluated: NaOCl and NaOCl mixed with DMH in a 0.25:1 molar ratio. The NaOCl and the DMH were mixed prior to pulp introduction. The biocides were introduced to the pulp slurry 10 minutes prior to inoculation with 2×10^6 cfu/ml P. Aeruginosa and E. Aerogenes. The pulp slurry consisted of 1.3% ground aspen wood pulp and 200 ppm rosin adjusted to pH=5.0-5.5 with aluminum sulfate. Bacteria populations were measured 3 hours after pulp slurry inoculation. Final total halogen concentrations were measured at the time of bacterial population plating by sample centrifuging followed by standard DPD analyses. Biocides were neutralized with sodium thiosulfate prior to plating.
(§2) The conditions were the same as those of Example 1. The molar ratio of the NaOCl to N-hydrogen compound was 1:1.

[2] = Example 5: final total halogen in pulp slurry with N-hydrogen compounds; format: physicochemical; conditions: for % Residual Halogen / Total Halogen Final: NaOCl to N-hydrogen compound 1:1 molar
Description: as §1, §2

[3] = test system: P. Aeruginosa and E. Aerogenes; assay: Example 1: pulp slurry bactericidal efficacy (modified ASTM E 600-91), biocide added 10 minutes prior to inoculation; format: cell-based; conditions: for Final Bacteria: inoculum 2×10^6 cfu/ml, 3 hours after inoculation
Description: as §1

[4] = Example 1: final total halogen in pulp slurry (DPD analyses); format: physicochemical; conditions: 3 hours after inoculation; for Total Halogen Final: 1.3% aspen pulp slurry pH 5.0-5.5; for % Residual Halogen: pulp slurry pH 5.0-5.5
Description: as §1

[5] = test system: P. Aeruginosa and E. Aerogenes; assay: Example 2: bactericidal efficacy of NaOCl added to DMH-treated pulp slurry; format: cell-based; conditions: for Final Bacteria: NaOCl added to pulp slurry (DMH-treated for 1:1 system)
Description: as §1
(§3) Prereaction of DMH with NaOCl as described in Example 1 was not required. The conditions of this experiment were in other respects the same as Example 1. The molar ratio in the pulp slurry was 1:1 NaOCl to DMH.

[6] = Example 2: final total halogen in DMH-treated pulp slurry; format: physicochemical; conditions: NaOCl added to pulp slurry (DMH-treated for 1:1 system)
Description: as §1, §3

[7] = test system: P. Aeruginosa and E. Aerogenes; assay: Example 3: bactericidal efficacy in preinoculated pulp slurry samples; format: cell-based; conditions: for Final Bacteria: pulp inoculated 5 minutes prior to biocide
Description: as §1
(§4) The conditions were the same as Example 1 except that the pulp was inoculated with bacteria 5 minutes prior to biocide introduction as opposed to 10 minutes after. Also the NaOCl to DMH mole ratio was increased from 0.25:1 to 1:1.

[8] = Example 3: final total halogen in preinoculated pulp slurry; format: physicochemical; conditions: pulp inoculated 5 minutes prior to biocide
Description: as §1, §4

[9] = Example 4: halogen consumption in non-inoculated pulp slurry vs NaOCl:DMH molar ratio; format: physicochemical; conditions: initial total halogen 25.6 ppm as Cl2; pulp slurry not inoculated
Description: as §1, §3
The experimental conditions were the same as those of Example 2, except that the pulp slurry was not inoculated with bacteria.

[10] = test system: P. Aeruginosa and E. Aerogenes; assay: Example 7: pulp slurry bactericidal efficacy of N-halohydantoin compound; format: cell-based; conditions: conditions of Example 1
Description: as §1
(§5) Specifically, Dantochlor®, a commercial halogenated hydantoin containing predominantly dichlorodimethylhydantoin and dichloroethylmethylhydantoin was used. The conditions were the same as those of Example 1.

[11] = Example 7: final total halogen in pulp slurry; format: physicochemical; conditions: conditions of Example 1
Description: as §1, §5

[12] = initial total halogen 1.0 ppm as Cl2
[13] = initial total halogen 3.0 ppm as Cl2
[14] = initial total halogen 5.0 ppm as Cl2
[15] = initial total halogen 7.5 ppm as Cl2
[16] = initial total halogen 10 ppm as Cl2
[17] = initial total halogen 3 ppm as Cl2
[18] = initial total halogen 5 ppm as Cl2
[19] = initial total halogen 15 ppm as Cl2
[20] = initial total halogen 0.8 ppm as Cl2
[21] = initial total halogen 3.4 ppm as Cl2
[22] = initial total halogen 16.3 ppm as Cl2

In the case of O=S(=O)(O)NCl [N-chlorosulfamate], the bacterial concentrations achieved (bacteria) is given as 10^3 cfu/ml.

In the case of NS(=O)(=O)O [Sulfamic acid, sulfamic acid], the “efficacy enhancement over sodium hypochlorite alone” value [1] is reported as “no efficacy enhancement”.

For CCC1(C)NC(=O)NC1=O (stereo not drawn) [MEH, 5-ethyl-5-methylhydantoin], the “log reduction of bacteria” value [1] was 3 log, the “efficacy enhancement over sodium hypochlorite alone” value [1] was “dramatically increased NaOCl efficacy” and the “mitigation of halogen decomposition” value ([2]; compared with cyanuric acid, Example 5) was “greatest mitigation of halogen decomposition”.

With [Na+].[O-]Cl [NaOCl, sodium hypochlorite] the “Final Bacteria” value [3, 12] was 10^5 cfu/ml, the “Final Bacteria” value [3, 13] was 10^4 cfu/ml and the “Final Bacteria” value [3, 14] was “≦10^3 cfu/ml”. The “Final Bacteria” value [3, 15] was “≦10^3 cfu/ml”, the “Final Bacteria” value [3, 16] was “≦10^3 cfu/ml” and the “Total Halogen Final” value [4, 12] was 0.00 ppm as Cl2. For the same compound, the “% Residual Halogen” value [4, 12] was 0%, the “Total Halogen Final” value [4, 13] was 0.00 ppm as Cl2 and the “% Residual Halogen” value [4, 13] was 0%. For the same compound, the “Total Halogen Final” value [4, 14] was 0.00 ppm as Cl2, the “% Residual Halogen” value [4, 14] was 0% and the “Total Halogen Final” value [4, 15] was 0.04 ppm as Cl2. The “% Residual Halogen” value [4, 15] was 0.5%, the “Total Halogen Final” value [4, 16] was 0.08 ppm as Cl2 and the “% Residual Halogen” value [4, 16] was 0.8%. The “Final Bacteria” value [5, 17] was 10^5 cfu/ml, the “Final Bacteria” value [5, 18] was 10^4 cfu/ml and the “Final Bacteria” value [5, 15] was <10^3 cfu/ml. For the same compound, the “Final Bacteria” value [5, 16] was <10^3 cfu/ml, the “Final Bacteria” value [5, 19] was <10^3 cfu/ml and the “% Residual Halogen” value [6, 17] was 0.0%. For the same compound, the “Total Halogen Final” value [6, 17] was 0.00 ppm as Cl2, the “% Residual Halogen” value [6, 18] was 0.4% and the “Total Halogen Final” value [6, 18] was 0.02 ppm as Cl2. For the same compound, the “% Residual Halogen” value [6, 15] was 0.5%, the “Total Halogen Final” value [6, 15] was 0.06 ppm as Cl2 and the “% Residual Halogen” value [6, 16] was 0.4%. For the same compound, the “Total Halogen Final” value [6, 16] was 0.04 ppm as Cl2, the “% Residual Halogen” value [6, 19] was 0.7% and the “Total Halogen Final” value [6, 19] was 0.11 ppm as Cl2. The “Final Bacteria” value [7, 20] was 10^4 cfu/ml, the “Final Bacteria” value [7, 21] was <10^3 cfu/ml and the “Final Bacteria” value [7, 22] was <10^3 cfu/ml. The “% Residual Halogen” value [8, 20] was 1.3%, the “Total Halogen Final” value [8, 20] was 0.01 ppm as Cl2 and the “% Residual Halogen” value [8, 21] was 1.0%. The “Total Halogen Final” value [8, 21] was 0.03 ppm as Cl2, the “% Residual Halogen” value [8, 22] was 2.1% and the “Total Halogen Final” value [8, 22] was 0.34 ppm as Cl2. For the same compound, the “% Residual Halogen” value [9] was 0.4%, the “Total Halogen Final” value [9] was 0.11 ppm as Cl2 and the “log reduction of bacteria” value [1] was 1 log. For the same compound, the “Final Bacteria” value [1, 12] was 10^6 cfu/ml, the “Final Bacteria” value [1, 13] was 10^5 cfu/ml and the “Final Bacteria” value [1, 14] was 10^5 cfu/ml. The “% Residual Halogen” value [2, 12] was 0.0%, the “Total Halogen Final” value [2, 12] was 0.00 ppm as Cl2 and the “% Residual Halogen” value [2, 13] was 0.7%. For the same compound, the “Total Halogen Final” value [2, 13] was 0.02 ppm as Cl2, the “% Residual Halogen” value [2, 14] was 0.6% and the “Total Halogen Final” value [2, 14] was 0.03 ppm as Cl2. The “Final Bacteria” value [10, 14] was “≦10^3 cfu/ml”, the “Final Bacteria” value [10, 15] was “≦10^3 cfu/ml” and the “% Residual Halogen” value [11, 14] was 0.4%. For the same compound, the “Total Halogen Final” value [11, 14] was 0.02 ppm as Cl2, the “% Residual Halogen” value [11, 15] was 1% and the “Total Halogen Final” value [11, 15] was 0.05 ppm as Cl2.

For CC1(C)NC(=O)NC1=O [DMH, 5,5-dimethylhydantoin], the “increase in efficacy of NaOCl in the presence of DMH” value ([3]; 1 ppm halogen with DMH equivalent to 5 ppm halogen alone, Example 1) was “fivefold”, the “increase in efficacy of NaOCl in the presence of DMH” value ([5]; 3 ppm with DMH vs 5 ppm in its absence, Example 2) was “twofold” and the “log reduction in bacteria concentration” value ([5]; initial halogen concentration 3 ppm, in the presence of DMH, Example 2) was 2 log. The “log reduction of bacteria” value ([7]; dosage 0.8 ppm halogen, in the presence of DMH, preinoculated samples, Example 3) was 3 log.
